In PubChem BioAssay (NCI) one finds TGI data, which are given here for eight compounds.

Among the test systems are HL-60(TB) leukemia; HT29 colon; LOX IMVI melanoma; M14 melanoma; MCF7 breast; MDA-MB-231 breast; NCI-H226 lung; NCI-H23 lung; PC-3 prostate; SK-MEL-28 melanoma; SN12C renal; SNB-75 CNS; SR leukemia; T-47D breast; U251 CNS; UACC-62 melanoma; HCC-2998 colon; SF-539 CNS; SK-MEL-2 melanoma; A498 renal.
What all share (test): inhibition of tumour cell growth, NCI panel, 48 h

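Interpolation was linear, between the two tested concentrations surrounding the appropriate level; five concentrations were tested over 48 hours in 96-well plates. Definition used: TGI = concentration required for complete inhibition of growth.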

For `O=c1[nH]c(=O)n(C2CC(O)C(CO)O2)cc1OCC1CCCCC1` (configuration not stated), the TGI with HL-60(TB) leukemia, with HT29 colon, with LOX IMVI melanoma, with M14 melanoma, in the experiment on MCF7 breast and in the experiment with MDA-MB-231 breast was greater than 100 µM in each case. Also, the TGI with NCI-H226 lung, in the experiment on NCI-H23 lung, in the experiment on PC-3 prostate, in the experiment with SK-MEL-28 melanoma, in the experiment on SN12C renal and in the experiment on SNB-75 CNS was greater than 100 µM throughout. The TGI in the experiment with SR leukemia, in the experiment with T-47D breast, in the experiment with U251 CNS and in the experiment on UACC-62 melanoma was greater than 100 µM each time.

As for `CC(=O)O[C@H]1C(=O)[C@@]2(C)[C@H]([C@H](OC(=O)c3ccccc3)[C@]3(O)C[C@H](OC(=O)[C@H](O)[C@@H](NC(=O)C(C)(C)C)c4ccccc4)C(C)=C1C3(C)C)[C@]1(OC(C)=O)CO[C@@H]1C[C@@H]2O`, the TGI was 0.44 µM in the experiment with HCC-2998 colon; 0.0791 µM in the experiment with HL-60(TB) leukemia; greater than 10 µM with HT29 colon; greater than 10 µM with LOX IMVI melanoma; greater than 4.71 µM in the experiment on M14 melanoma; greater than 10 µM in the experiment with MCF7 breast. Also, the TGI in the experiment with MDA-MB-231 breast is greater than 10 µM; with NCI-H226 lung it was greater than 10 µM; in the experiment on NCI-H23 lung, greater than 10 µM; with PC-3 prostate, 1.31 µM; in the experiment on SF-539 CNS, 0.413 µM; in the experiment on SK-MEL-2 melanoma, greater than 3.28 µM. Moreover, the TGI in the experiment with SK-MEL-28 melanoma is greater than 10 µM; in the experiment on SN12C renal, greater than 10 µM; in the experiment on SNB-75 CNS, 2.19 µM; with SR leukemia, greater than 2.58 µM; in the experiment with T-47D breast, greater than 10 µM; in the experiment with U251 CNS, greater than 3.9 µM. Moreover, in the experiment on UACC-62 melanoma, the TGI is greater than 10 µM.

Regarding `COC1O[C@H]2[C@H]3[C@@H]1[C@@H](OS(=O)(=O)c1ccc(C)cc1)C(=O)N3C[C@H]2O` (some centres not stated), the TGI in the experiment with A498 renal, in the experiment on HCC-2998 colon, in the experiment on HT29 colon, in the experiment with LOX IMVI melanoma, in the experiment with M14 melanoma and with MCF7 breast was greater than 100 µM each time. The TGI with MDA-MB-231 breast, in the experiment with NCI-H226 lung, with NCI-H23 lung, in the experiment on PC-3 prostate, in the experiment with SF-539 CNS and with SK-MEL-2 melanoma was greater than 100 µM each time. For the same compound, the TGI in the experiment with SK-MEL-28 melanoma, with SR leukemia, in the experiment on T-47D breast, with U251 CNS and in the experiment with UACC-62 melanoma was greater than 100 µM throughout.

For the compound `COc1ccc2c(ccc3c(COC(=O)NC(C)C)c(COC(=O)NC(C)C)n(C)c32)c1`, the TGI with A498 renal stood at 21 µM; with HT29 colon, 26.5 µM; with LOX IMVI melanoma, 19.6 µM; in the experiment with M14 melanoma it was 22.1 µM; in the experiment on MCF7 breast it was 93.5 µM; in the experiment with MDA-MB-231 breast it was 34.2 µM. Also, the TGI in the experiment with NCI-H226 lung came to 23.2 µM; in the experiment with NCI-H23 lung, 16 µM; in the experiment with PC-3 prostate it was 24.3 µM; in the experiment on SF-539 CNS, 20.9 µM; in the experiment with SK-MEL-2 melanoma it was 32.5 µM; in the experiment on SNB-75 CNS, 15.8 µM. Further, the TGI is greater than 100 µM in the experiment on SR leukemia, 82.6 µM with T-47D breast, 28.5 µM in the experiment with U251 CNS and 18.4 µM in the experiment with UACC-62 melanoma.

With `CCOC(=O)C(NCc1cccc(C(F)(F)F)c1)(NC(=O)CC)C(F)(F)F` (configuration not stated), the TGI in the experiment on HCC-2998 colon, with HL-60(TB) leukemia, in the experiment on HT29 colon, with LOX IMVI melanoma, in the experiment with M14 melanoma and in the experiment with MCF7 breast was greater than 100 µM each time. Besides, the TGI in the experiment on MDA-MB-231 breast, in the experiment on NCI-H226 lung, with NCI-H23 lung, with PC-3 prostate, in the experiment with SF-539 CNS and with SK-MEL-2 melanoma was greater than 100 µM throughout. For the same compound, the TGI in the experiment with SK-MEL-28 melanoma, in the experiment on SN12C renal, in the experiment with SNB-75 CNS, in the experiment on SR leukemia, with T-47D breast and with U251 CNS was greater than 100 µM throughout. For the same compound, the TGI in the experiment with UACC-62 melanoma is greater than 100 µM.

Consider `Cn1/c(=N\N=C(\CNCCO)[C@@H](O)[C@@H]2OC(c3ccccc3)OC[C@H]2O)sc2ccccc21` (some centres not stated), for which the TGI in the experiment with HCC-2998 colon amounted to 32 µM; with HT29 colon, 38.6 µM; in the experiment with LOX IMVI melanoma, 31 µM; with M14 melanoma, 26.5 µM; in the experiment on MCF7 breast it was 34.2 µM; in the experiment with MDA-MB-231 breast, 29.8 µM. The TGI is 37.5 µM in the experiment with NCI-H23 lung; 35.5 µM in the experiment with PC-3 prostate; 32.7 µM with SF-539 CNS; 33.3 µM in the experiment with SK-MEL-2 melanoma; 33.2 µM with SK-MEL-28 melanoma; 35.2 µM in the experiment with SN12C renal. The TGI worked out at 32.3 µM in the experiment on SNB-75 CNS; 41 µM in the experiment on SR leukemia; 47 µM in the experiment with T-47D breast; 31.8 µM in the experiment with U251 CNS; 31.2 µM in the experiment with UACC-62 melanoma.

Regarding `COc1cc(Nc2nc3ccc(C(F)(F)F)cc3nc2C(=O)O)cc(OC)c1OC`, the TGI in the experiment with HCC-2998 colon is 34.5 µM; in the experiment with HL-60(TB) leukemia it was greater than 100 µM; with HT29 colon it was 63.3 µM; with LOX IMVI melanoma, 35.6 µM; with M14 melanoma it was 93.3 µM; in the experiment on MCF7 breast, greater than 100 µM. In addition, the TGI stood at 53.9 µM with MDA-MB-231 breast; 40.6 µM in the experiment on NCI-H226 lung; 45.5 µM with NCI-H23 lung; 56.1 µM in the experiment on PC-3 prostate; 86.5 µM in the experiment with SF-539 CNS; 45.3 µM in the experiment on SK-MEL-2 melanoma. The TGI in the experiment with SK-MEL-28 melanoma is 80.3 µM; with SN12C renal it was 38.1 µM; in the experiment with SNB-75 CNS it was greater than 100 µM; with SR leukemia it was greater than 100 µM; in the experiment on T-47D breast, 78.3 µM; in the experiment on U251 CNS, 36.7 µM. Also, the TGI in the experiment on UACC-62 melanoma stood at 38.2 µM.

`O=c1c2cc([N+](=O)[O-])ccc2nc2n1CCCCC2`: the TGI in the experiment on A498 renal, with HL-60(TB) leukemia, with HT29 colon, in the experiment on LOX IMVI melanoma, with M14 melanoma and with MCF7 breast was greater than 100 µM in each case. Also, the TGI in the experiment with MDA-MB-231 breast, in the experiment with NCI-H226 lung, in the experiment on NCI-H23 lung, with PC-3 prostate, in the experiment on SF-539 CNS and in the experiment with SK-MEL-2 melanoma was greater than 100 µM in each case. Further, the TGI in the experiment on SK-MEL-28 melanoma, with SN12C renal, in the experiment on SNB-75 CNS, with SR leukemia, in the experiment on T-47D breast and in the experiment on U251 CNS was greater than 100 µM in each case. In the experiment on UACC-62 melanoma, the TGI was greater than 100 µM.
